Results on 43 compounds are retold here after BindingDB's records for doi:10.7270/Q2NG4P4X (Burnham Center For Chemical Genomics, 2011).

Structures are written as SMILES.

The target in the assay is Beta-galactosidase (Escherichia coli, UniProt Q8VNN2). Kind of assay: detection-enzyme interference by beta-gal modulators – biochemical, E. coli enzyme, set 3, artefact control for CCR6 antagonist project, dose response (AID 504712).
Chain of Beta-galactosidase (Q8VNN2 whole entry): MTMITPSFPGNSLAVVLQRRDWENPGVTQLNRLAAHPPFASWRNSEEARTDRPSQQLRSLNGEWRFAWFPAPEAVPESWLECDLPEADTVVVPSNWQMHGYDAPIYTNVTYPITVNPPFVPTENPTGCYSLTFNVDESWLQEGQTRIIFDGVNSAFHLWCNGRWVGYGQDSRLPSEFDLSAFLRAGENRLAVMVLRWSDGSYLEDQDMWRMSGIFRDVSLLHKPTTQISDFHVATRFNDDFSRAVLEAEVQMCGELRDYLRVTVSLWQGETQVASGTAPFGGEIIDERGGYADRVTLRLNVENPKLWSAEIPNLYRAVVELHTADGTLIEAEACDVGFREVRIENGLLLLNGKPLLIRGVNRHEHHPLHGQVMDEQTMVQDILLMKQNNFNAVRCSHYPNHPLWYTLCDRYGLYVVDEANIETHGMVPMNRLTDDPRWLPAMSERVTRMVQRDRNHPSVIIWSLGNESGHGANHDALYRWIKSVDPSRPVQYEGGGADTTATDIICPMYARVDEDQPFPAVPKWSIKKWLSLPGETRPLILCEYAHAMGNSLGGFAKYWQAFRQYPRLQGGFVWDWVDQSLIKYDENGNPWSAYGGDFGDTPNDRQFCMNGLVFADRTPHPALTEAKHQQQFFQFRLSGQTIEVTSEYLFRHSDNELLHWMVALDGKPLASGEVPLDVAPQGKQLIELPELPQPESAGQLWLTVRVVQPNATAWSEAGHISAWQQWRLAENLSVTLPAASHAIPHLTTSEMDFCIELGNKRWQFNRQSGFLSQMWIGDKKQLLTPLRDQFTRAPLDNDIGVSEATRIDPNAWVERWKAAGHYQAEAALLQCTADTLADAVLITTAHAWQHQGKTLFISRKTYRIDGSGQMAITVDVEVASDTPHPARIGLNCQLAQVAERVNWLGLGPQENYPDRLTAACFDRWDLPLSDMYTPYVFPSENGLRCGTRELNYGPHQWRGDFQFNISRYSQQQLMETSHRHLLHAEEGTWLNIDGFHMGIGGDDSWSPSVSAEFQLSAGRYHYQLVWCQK
In the case of `CC(NO)C(=O)C(=CN1CCCCC1)CN1CCCCC1` (stereo not drawn), the IC50 is > 66.6 µM.
In the case of `CCOC1=CC(=Cc2c(-c3ccccc3)[nH]n(-c3nc(-c4ccc(Br)cc4)cs3)c2=O)C=CC1=O`, the IC50 was > 66.6 µM.
Then `C=c1c(O)c(O)cc2c1=CC=C1[C@@]2(C)CC[C@@]2(C)[C@@H]3C[C@](C)(C(=O)O)CC[C@]3(C)CC[C@]12C`, with > 66.6 µM; and `Cc1ccc2nc(-n3c(O)c[nH]c3=S)sc2c1`, with > 66.6 µM.
As to `Oc1cc(Sc2nnnn2-c2ccccc2)c(O)n1-c1cccc(Cl)c1`, the IC50 was > 66.6 µM.
For `O=C1C=CC([N+](=O)[O-])=CC1CN=Nc1nnn[nH]1` (stereo not drawn), the IC50 is > 66.6 µM.
As for `Cc1cc(C)nc(NNC=C2C(=O)CC(c3ccc(F)cc3)CC2=O)n1` (stereo not drawn), the figure is > 66.6 µM; as for `CCOc1ccc(CN=Nc2ccc(S(=O)(=O)Nc3ccccc3C(=O)O)cc2[N+](=O)[O-])cc1`, > 66.6 µM.
Take `Cc1ccccc1-n1c(O)cc(Sc2nnc(-c3ccccc3)o2)c1O` [1-(2-methylphenyl)-3-[(5-phenyl-1,3,4-oxadiazol-2-yl)sulfanyl]pyrrolidine-2,5-dione]: the half-inhibitory concentration (IC50) is > 66.6 µM.
As for `Cc1cc(C)cc(-n2c(O)cc(Sc3nnnn3-c3ccccc3)c2O)c1` [1-(3,5-dimethylphenyl)-3-(1-phenyltetrazol-5-yl)sulfanylpyrrolidine-2,5-dione], the figure is > 66.6 µM; as for `COc1ccc(-n2c(O)cc(Sc3nnc(-c4ccccc4)o3)c2O)cc1` [1-(4-methoxyphenyl)-3-[(5-phenyl-1,3,4-oxadiazol-2-yl)thio]pyrrolidine-2,5-dione], > 66.6 µM.
As for `O=C1Nc2ccc([N+](=O)[O-])cc2/C1=N/NC(=O)c1cc(-c2ccccc2Cl)nc2ccccc12` [2-(2-chlorophenyl)-N'-(2-keto-5-nitro-indol-3-yl)cinchoninohydrazide], the figure is > 66.6 µM.
As for `Cc1c(NN=C2C(=O)CC(C)(C)CC2=O)c(=O)n(-c2ccccc2)n1C` [2-[(1,5-dimethyl-3-oxidanylidene-2-phenyl-pyrazol-4-yl)hydrazinylidene]-5,5-dimethyl-cyclohexane-1,3-dione], the figure is > 66.6 µM.
`C=CCOc1ccc(CN=Nc2ccc(S(=O)(=O)Nc3ccccc3C(=O)O)cc2[N+](=O)[O-])cc1OC` [2-[[4-[2-[(3-methoxy-4-prop-2-enoxy-phenyl)methylidene]hydrazinyl]-3-nitro-phenyl]sulfonylamino]benzoic acid]: the IC50 is > 66.6 µM.
On to `COC1=CC=CC(CN=Nc2nc(Nc3ccc([N+](=O)[O-])cc3)nc(N3CCCC3)n2)C1=O` (stereo not drawn) [2-hydroxy-3-methoxybenzaldehyde {4-[(4-nitrophenyl)amino]-6-pyrrolidin-1-yl-1,3,5-triazin-2-yl}hydrazone], for which the IC50 is > 66.6 µM.
Consider `Oc1cc(Sc2nnnn2C2CCCCC2)c(O)n1-c1ccccc1` [3-[(1-cyclohexyl-1,2,3,4-tetrazol-5-yl)sulfanyl]-1-phenyl-pyrrolidine-2,5-dione], for which the IC50 was > 66.6 µM.
As for `Oc1ccccc1-c1nnc(Sc2cc(O)n(-c3ccccc3)c2O)o1` [3-[[(2Z)-2-(6-oxo-1-cyclohexa-2,4-dienylidene)-3H-1,3,4-oxadiazol-5-yl]thio]-1-phenylpyrrolidine-2,5-dione], the figure is > 66.6 µM; as for `O=Nc1c(C2C(=O)Nc3cc(Br)ccc32)[nH]c2ccccc12` (stereo not drawn) [6-bromoindirubin-3-oxime], 40.8 µM.
With `O=C1C([N+](=O)[O-])=CC=CC1CN=Nc1ccc2ccccc2n1` (stereo not drawn) [(6E)-2-nitro-6-[(2-quinolin-2-ylhydrazinyl)methylidene]cyclohexa-2,4-dien-1-one], the IC50 is > 66.6 µM.
Then `COc1cccc(CN=Nc2nc(Nc3ccccc3)nc(-n3nc(C)cc3C)n2)c1O` [(6E)-6-[[2-[4-(3,5-dimethylpyrazol-1-yl)-6-phenylazanyl-1,3,5-triazin-2-yl]hydrazinyl]methylidene]-2-methoxy-cyclohexa-2,4-dien-1-one], with > 66.6 µM.
As for `CN(C)c1nc(N=NCc2ccccc2O)nc(Nc2ccc(F)cc2)n1` [(6E)-6-[[2-[4-(dimethylamino)-6-(4-fluoroanilino)-1,3,5-triazin-2-yl]hydrazinyl]methylidene]cyclohexa-2,4-dien-1-one], the figure is > 66.6 µM.
Regarding `CC(N=Nc1ccc2ccccc2n1)c1ccccc1O` (stereo not drawn) [(6Z)-6-[1-[N'-(2-quinolyl)hydrazino]ethylidene]cyclohexa-2,4-dien-1-one], the IC50 was > 66.6 µM.
Regarding `O=C1C([N+](=O)[O-])=CC(Cl)=CC1CN=Nc1ccccn1` (stereo not drawn) [MLS000539830], the IC50 is > 66.6 µM.
As for `O=C1C=CC([N+](=O)[O-])=CC1CN=Nc1ccccn1` (stereo not drawn) [MLS000585015], the IC50 is > 66.6 µM.
Then `O=C(NN=CC1C=C([N+](=O)[O-])C=CC1=O)Nc1ccccc1` (stereo not drawn) [MLS000713965], with > 66.6 µM; and `O=C1C(O)=CC=CC1CN=Nc1ccc([N+](=O)[O-])cc1` (stereo not drawn) [MLS001207776], with > 66.6 µM.
As to `Oc1c(Cl)c(N=CCc2ccccc2)c(O)c2ccccc12` [MLS002608293], the IC50 was > 66.6 µM.
Then `O=C1C=CC=CC1CN=Nc1ccc([N+](=O)[O-])cn1` (stereo not drawn) [MLS002608402], with 46 µM; and `C/C=C(\C)C(=O)OC1[C@H](OC(C)=O)C2(CO)C(CC1(C)C)C1=CCC3C4(C)CCC(O[C@@H]5O[C@H](C(=O)O)[C@@H](O[C@@H]6O[C@H](CO)[C@@H](O)[C@H](O)[C@H]6O)[C@H](O)[C@H]5O[C@H]5O[C@H](CO)[C@@H](O)[C@H](O)[C@H]5O)[C@](C)(CO)C4CCC3(C)[C@]1(C)C[C@H]2O` (stereo partly drawn) [MLS002695979], with > 66.6 µM; and `C=CCSC(N)=NN=CC1C=C(Br)C=C([N+](=O)[O-])C1=O` (stereo not drawn) [N''-[[(E)-(3-bromo-5-nitro-6-oxo-1-cyclohexa-2,4-dienylidene)methyl]amino]carbamimidothioic acid prop-2-enyl ester], with > 66.6 µM.
Then `CC1=NN(c2ccccc2)C(=O)/C1=C/NN1C(=O)c2ccc3c4c(ccc(c24)C1=O)CC3` [SMR000171439], with > 66.6 µM; and `CN1C(=O)/C(=C2/C(=O)Nc3ccccc32)NC1=S` [SMR000198608], with > 66.6 µM.
Then `O=C1C(/C=N/c2ccc(N3CCOCC3)cc2)=CC(Cc2ccccc2)C=C1[N+](=O)[O-]` (stereo not drawn) [SMR000231104], with > 66.6 µM; and `CCOc1ccc(-n2c(O)cc(Sc3nnnn3-c3ccccc3)c2O)cc1` [SMR000271658], with > 66.6 µM.
In the case of `Cc1cc2nc(-n3c(O)c[nH]c3=S)sc2cc1C` [SMR000272190], the IC50 was > 66.6 µM.
Turning to `CCCC1CCC(=NNC(=S)NCCc2ccccc2)CC1` (stereo not drawn) [SMR000347544], the IC50 is > 66.6 µM.
As for `CC(C)(C)C1CCC(=NNC(=S)NCc2ccccc2)CC1` (stereo not drawn) [SMR000377499], the figure is > 66.6 µM; as for `COc1ccc(-n2c(O)c(CN=Nc3nc(C)cc(C)n3)c3ccccc3c2=O)cc1OC` [SMR000385482], > 66.6 µM; as for `Cc1cc(N=NCc2ccc(F)cc2)nc(-n2nc(C)cc2C)n1` [SMR000426945], > 66.6 µM.
As for `CN1C(=O)C(C2CC(c3ccc(Cl)cc3)N=N2)C(=O)N(C)C1=O` (stereo not drawn) [SMR000439471], the figure is > 66.6 µM; as for `O=C(O)c1ccc(N=NC=CCc2ccc([N+](=O)[O-])o2)cc1` [SMR000590759], 33 µM; as for `CCOc1ccc(CN=Nc2ccc(S(=O)(=O)Nc3ccccc3C(=O)O)cc2[N+](=O)[O-])cc1OC` [SMR001308940], > 66.6 µM.
As for `N#CC(=C1C=CC(N=O)C(Cl)=C1)c1ccc(Cl)cc1` (stereo not drawn) [SMR001570423], the figure is > 66.6 µM.

The term IC50 denotes the concentration that inhibits the measured activity by half. A low value points to greater potency in that assay.
